Source: PMC8390552, “Helix 12 stabilization contributes to basal transcriptional activity of PXR” (The Journal of Biological Chemistry, 2021)
Where a chain is given by its changes, count along the chain named.

How the values were obtained:
WT PXR = molecular target: T1, WT PXR (Homo sapiens, UniProt O75469); test: Reporter gene assay (p3A4-pGL3, CYP3A4 promoter) in COS-1 cells expressing WT PXR; settings: 1 μM ligand, without PGC1α (Fig. S7)
T1 sequence (O75469 1-434): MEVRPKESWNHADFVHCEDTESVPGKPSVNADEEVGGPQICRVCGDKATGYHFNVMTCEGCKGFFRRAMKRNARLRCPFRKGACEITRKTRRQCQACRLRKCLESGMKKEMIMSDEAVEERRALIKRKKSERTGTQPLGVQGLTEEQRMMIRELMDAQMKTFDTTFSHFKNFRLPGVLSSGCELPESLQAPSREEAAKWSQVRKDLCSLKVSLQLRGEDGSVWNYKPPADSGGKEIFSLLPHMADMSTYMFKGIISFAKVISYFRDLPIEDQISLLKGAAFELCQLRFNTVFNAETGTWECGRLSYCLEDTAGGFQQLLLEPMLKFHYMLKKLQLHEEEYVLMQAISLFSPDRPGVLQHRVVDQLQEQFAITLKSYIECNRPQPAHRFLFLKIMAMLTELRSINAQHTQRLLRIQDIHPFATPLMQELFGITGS
Protocol: (§1) COS-1 cells were cultured in Dulbecco's Modified Eagle medium (DMEM, Fujifilm Wako Pure Chemical) supplemented with 10% fetal bovine serum (FBS, GE Healthcare), MEM nonessential amino acids, and antibiotic-antimycotic (Thermo Fisher Scientific). Twenty-four hours after seeding, the culture medium was replaced with prewarmed DMEM without FBS, and plasmids were transfected with Lipofectamine 3000 (Thermo Fisher Scientific) according to the manufacturer’s instructions.
(§2) Firefly luciferase luminescence was normalized to Renilla luciferase luminescence.

PXR-F420A = molecular target: T2, PXR-F420A (Homo sapiens, UniProt O75469, F420A); test: Reporter gene assay (p3A4-pGL3, CYP3A4 promoter) in COS-1 cells expressing PXR-F420A; settings: 1 μM ligand, without PGC1α (Fig. S7)
T2 sequence (O75469 1-434 F420A): T1 sequence (O75469 1-434) with F420A
Protocol: as §1, §2

Compound: Clc1ccccc1C(c1ccccc1)(c1ccccc1)n1ccnc1 [clotrimazole, Clotrimazole]
- Induction of reporter activity, WT PXR (WT PXR): weak induction
- Induction of reporter activity, PXR-F420A (PXR-F420A): but not for PXR-F420A
